Laboratory results as given in patent US20050107289A1, “Anti-microbial peptides and compositions” (priority 2001, published 2005).
≈ marks a conversion by molar mass, not a printed value. Where two headings read alike, the source gives them in different places. Non-standard residues stand in square brackets, D forms with d. Residues, ends and D or L forms follow the SMILES beside them.

Tests used:
[1] = tested on: S. aureus (MRSA) (ATCC No. 33592); assay: Time-killing curve, S. aureus MRSA ATCC 33592; format: cell-based, Staphylococcus aureus
Protocol: The speed at which several of the cyclic peptides of the invention kill E. coli JM 109 (DE3), Enterococcus faecium SP 180 and S. aureus (MRSA) (ATCC No. 33591 and 33592) was further tested at room temperature and/or at 37° C. A lower temperature tends to enrich the bacterial cultures for mature bacteria because the bacteria are not growing quickly. […] The presence or absence of immature bacteria in the culture may influence the rate at which the bacteria are killed, because immature bacteria tend to be more susceptible to many forms of antibiotics.
FIGS. 9 and 10 illustrate the time course for killing S. aureus (MRSA) (ATCC No. 33592) with varying concentrations of cyclo[KSKWLWLW] cyclic peptide (SEQ ID NO:12) at room temperature and at 37° C. […] This may be due to growth of a few survivors after the residual cyclic peptide within the culture has been exhausted because the amount of peptide employed in that assay was below the MIC value.

[2] = tested on: S. aureus ATCC 33592; assay: microbe, parasite or virus in culture; format: cell-based, Staphylococcus aureus; conditions: for MIC: Staphylococcus aureus
Protocol: (§1) The antimicrobial activity of the peptides was determined using a broth dilution assay essentially as descried in the guidelines of the National Committee for […] (NCCLS) [National Committee for Clinical Laboratory Standards. Methods for dilution antimicrobial susceptibility tests for bacteria that grow aerobically. Fourth edition. Approved Standard (1997). Document M7-A4. […] The microdilution method has the advantages of requiring less amount of peptide for each assay and the possibility of multiple simultaneous inoculations and was used in most studies. Several of the strains of bacteria tested are further described in Table 3.
(§2) Preparation of peptide solutions. Stock peptide solutions were prepared in 5% DMSO in aq. sucrose (9%). Determination of peptide concentrations was done by quantitative HPLC analysis using known concentrations of internal standards and/or by measuring UV absorption of tryptophane-containing peptide solutions in H2O (λ=280 εTrp: 5690). Serial 2-fold dilutions were made in the above DMSO/aq. sucrose (9%) mixture with concentrations ranging approximately 400-2 μg/ml and aliquots were dispensed in test tubes (100 μl) for the macrodilution test or in microtiter plates (20 μl) for the microdilution assays.
(§3) Inoculum preparation. Overnight cultures of different microorganisms grown in suitable media were diluted 4000 times to an approximate inoculum size of 2.5×10^5 cfu/ml.
(§4) Macrodilution method. Macrodilution methods were performed using procedures similar to those described in the National Committee for Clinical Laboratory Standards. Methods for dilution antimicrobial susceptibility tests for bacteria that grow aerobically. Fourth edition. Approved Standard (1997). Document M7-A4. (NCCLS,Villanova, Pa., 1997). Two ml aliquots of the above inoculum were dispensed to test tubes containing different peptide solutions.
(§5) Microdilution method. Microdilution methods were performed using procedures similar to those described in the National Committee for Clinical Laboratory Standards. Methods for dilution antimicrobial susceptibility tests for bacteria that grow aerobically. Fourth edition. Approved Standard (1997). Document M7-A4.

[3] = tested on: E. faecium SP180; assay: microbe, parasite or virus in culture; format: cell-based, Enterococcus faecium; conditions: for MIC: Enterococcus faecium
Protocol: as §1, §2, §3, §4, §5

[4] = tested on: E. coli (EL744) K12 (tolC::kan); assay: microbe, parasite or virus in culture; format: cell-based, Escherichia coli; conditions: for MIC: Escherichia coli, read-out: E. coli (EL744) K12 (tolC::kan) MIC
Protocol: as §1, §2, §3, §4, §5

[5] = tested on: E. coli (K12); assay: microbe, parasite or virus in culture; format: cell-based, Escherichia coli; conditions: for MIC: Escherichia coli, read-out: E. coli (K12) MIC
Protocol: as §1, §2, §3, §4, §5

[6] = tested on: H. influenzae ATCC 49247; assay: microbe, parasite or virus in culture; format: cell-based, Hemophilus influenzae; conditions: for MIC: Haemophilus influenzae
Protocol: as §1, §2, §3, §4, §5

[7] = tested on: E. faecalis ATCC 51299; assay: microbe, parasite or virus in culture; format: cell-based, Enterococcus faecalis; conditions: for MIC: Enterococcus faecalis
Protocol: as §1, §2, §3, §4, §5

[8] = tested on: murine red blood cells; assay: Red blood cell hemolysis; format: cell-based, mouse; design: RBC Hemolysis (HD50): unit not given here
How it was run: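 Hemolysis read as A560 of supernatant, scaled between saline (0%) and 1% Triton X-100 (100%) controls; peptides were serially diluted onto 5% murine red cells in saline plus 10% FBS and incubated 30 min at 37° C.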

[9] = tested on: vancomycin-resistant Enterococus faecalis (VRE)(ATCC 51575); format: cell-based, Enterococcus faecalis; design: key to VRE (in vitro activity): peptide concentration in μg/ml (broth dilution assay); conditions: for VRE (in vitro activity): Table 9
How it was run: (§6)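 Broth microdilution (macrodilution in some cases) per NCCLS M7-A4; peptides 2-fold serially diluted in 5% DMSO/9% sucrose, ~400-2 μg/ml before dilution into broth; inoculum ~2.5×10^5 cfu/ml from overnight culture diluted 4000×.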

[10] = tested on: S. aureus (MRSA) ATCC 33591; format: cell-based, Staphylococcus aureus; conditions: for MRSA (in vitro activity): Table 9
How it was run: as §6

[11] = Human; cited from earlier work
[12] = trypsin, α-chymotrypsin, subtilisin, blood plasma; RP-HPLC over 24 h
Protocol: Cyclic peptides having SEQ ID NO:13, 18, 26, and 29 were assayed for proteolytic susceptibility.

[13] = tested on: Bacillus cereus ATCC 11778; format: cell-based; conditions: Table 10
How it was run: as §6

[14] = tested on: E. coli JM109(DE3); format: cell-based, Escherichia coli
How it was run: as §6

[15] = media c: Brain Heart Infusion (BHI)
[16] = media b: cation adjusted Meuller Hinton broth (MHBII)

CC1(C)S[C@@H]2[C@H](NC(=O)Cc3ccccc3)C(=O)N2[C@H]1C(=O)O [Penicillin G, reference compound]
reduction of cfu ([1]; 512 μg/ml, 37° C.): effective in reducing the number of cfu within four hours
killing or reducing S. aureus (MRSA) population ([1]; room temperature, 0-8 hours, up to 512 μg/ml): no concentration of penicillin G assayed up to 512 μg/ml was effective
S. aureus ATCC 33592 MIC ([2]; MHII broth): 64 µg/mL
E. faecium SP180 MIC ([3]; BHI broth): 128 µg/mL
E. coli (EL744) K12 (tolC::kan) MIC ([4]; MHII broth): 16 µg/mL
E. coli (K12) MIC ([5]; MHII broth): 32 µg/mL
H. influenzae ATCC 49247 MIC ([6]; HTM): 4 µg/mL
E. faecalis ATCC 51299 MIC ([7]; BHI broth): 0.5 µg/mL

CCn1cc(C(=O)O)c(=O)c2cc(F)c(N3CCNCC3)cc21 [Norfloxacin, reference compound]
MIC ([2]; ATCC33592, MHII broth, read-out: S. aureus ATCC 33592 MIC): 0.5 µg/mL (≈ 1.57 µM)
MIC ([3]; SP180, BHI broth, read-out: E. faecium SP180 MIC): 32 µg/mL (≈ 100 µM)
RBC Hemolysis (HD50) ([8]; mouse, 30 min): >360
MIC [4]: 0.016 µg/mL (≈ 0.0501 µM)
MIC ([5]; MHII broth): 0.06 µg/mL (≈ 0.188 µM)
VRE (in vitro activity) [9, 15]: <2.8
MIC ([6]; ATCC49247, HTM, read-out: H. influenzae ATCC 49247 MIC): 0.06 µg/mL (≈ 0.188 µM)
MIC ([7]; ATCC51299, BHI broth, read-out: E. faecalis ATCC 51299 MIC): 2 µg/mL (≈ 6.26 µM)
MRSA (in vitro activity) [10, 16]: <2.8

CC[C@H]1OC(=O)[C@H](C)[C@@H](O[C@H]2C[C@@](C)(OC)[C@@H](O)[C@H](C)O2)[C@H](C)[C@@H](O[C@@H]2O[C@H](C)C[C@H](N(C)C)[C@H]2O)[C@](C)(O)C[C@@H](C)C(=O)[C@H](C)[C@@H](O)[C@]1(C)O [Erythromycin]
Kel elimination rate constant [11]: 0.58 h⁻¹
T1/2 half life time [11]: 1.2 h

CC(C)C[C@H]1NC(=O)[C@H](Cc2c[nH]c3ccccc23)NC(=O)[C@@H](CCCCN)NC(=O)[C@H](Cc2c[nH]cn2)NC(=O)[C@@H](CO)NC(=O)[C@H](Cc2c[nH]c3ccccc23)NC(=O)[C@@H](CC(C)C)NC(=O)[C@H](Cc2c[nH]c3ccccc23)NC1=O [SEQ ID NO:13] (cyclo([dS]H[dK]W[dL]W[dL]W))
proteolytic stability [12]: stable
B. cerius MIC [13]: 12 µg/mL
E. coli MIC ([14]; Table 6, JM109(DE3)): 100 µg/mL
RBC Hemolysis (HD50) ([8]; Table 9): 35
VRE (in vitro activity) ([9]; media a: AM-3): 40
VRE MIC ([9]; Table 10, ATCC 51575): 40 µg/mL
S. aureus (MRSA) MIC ([10]; Table 6, ATCC 33591): 10 µg/mL
MRSA (in vitro activity) ([10]; media a: anti-microbial media-3 (AM-3)): 10
MRSA MIC ([10]; Table 10, ATCC 33591): 10 µg/mL

CN[C@H](CC(C)C)C(=O)N[C@H]1C(=O)N[C@@H](CC(N)=O)C(=O)N[C@H]2C(=O)N[C@H]3C(=O)N[C@H](C(=O)N[C@H](C(=O)O)c4cc(O)cc(O)c4-c4cc3ccc4O)[C@H](O)c3ccc(c(Cl)c3)Oc3cc2cc(c3O[C@@H]2O[C@H](CO)[C@@H](O)[C@H](O)[C@H]2O[C@H]2C[C@](C)(N)[C@H](O)[C@H](C)O2)Oc2ccc(cc2Cl)[C@H]1O [Vancomycin, reference compound]
MIC ([2]; ATCC33592, read-out: S. aureus ATCC 33592 MIC): 0.5 µg/mL (≈ 0.345 µM)
CL total clearance [11]: 66 mL/min
Kel elimination rate constant [11]: 0.12 h⁻¹
T1/2 half life time [11]: 6 h
VD volume of distribution [11]: 0.47 L/kg
MIC ([3]; SP180, read-out: E. faecium SP180 MIC): > 128 µg/mL
RBC Hemolysis (HD50) ([8]; Table 9): >240
MIC [4]: 128 µg/mL (≈ 88.3 µM)
MIC [5]: 128 µg/mL (≈ 88.3 µM)
VRE (in vitro activity) [9, 15]: >240
MIC ([6]; ATCC49247, read-out: H. influenzae ATCC 49247 MIC): 128 µg/mL (≈ 88.3 µM)
MIC ([7]; ATCC51299, read-out: E. faecalis ATCC 51299 MIC): 32 µg/mL (≈ 22.1 µM)
MRSA (in vitro activity) [10, 16]: VANCOMYCIN <1.8

CC(C)C[C@H]1NC(=O)[C@H](CCCNC(=N)N)NC(=O)[C@@H](CCCNC(=N)N)NC(=O)[C@H](Cc2c[nH]c3ccccc23)NC(=O)[C@@H](CC(C)C)NC(=O)[C@H](Cc2c[nH]c3ccccc23)NC1=O [SEQ ID NO:29, cyclo-(D-Arg-Arg-D-Leu-Trp-D-Leu-Trp)] (cyclo(R[dL]W[dL]W[dR]))
proteolytic stability [12]: stable
E. coli MIC ([14]; JM109): 5 µg/mL
Hemolysis HD50 ([8]; red cells of murine): 90 µg/mL
S. aureus (MRSA) MIC ([10]; ATCC 33591): 35 µg/mL
